Laboratory results published in patent publication US8324346B2, “Bioactive keratin peptides” (Keraplast Technologies, Ltd., priority 2002, dated 2012).

Test system: Normal human adult dermal fibroblasts
Assay: Cell Titer96 Cell Proliferation Assay: mitogenic effects of synthesized peptides on human fibroblasts in culture for 5 days
Format: cell-based
Conditions: normalized to baseline controls
Description: Normal human adult dermal fibroblasts were cultured in fibroblast growth medium (Clonetics™/BioWhittaker, San Diego, Calif., USA). Passage 5 cells were seeded into wells of 96 well plates at 5×10^3 cells/well. Test peptide solutions were prepared at approximately 1.5 mg/ml in sterile water. Small volumes of 0.1N NH4OH were added dropwise to peptide the peptide solutions to completely solubilize the peptides as recommended by the manufacturer (New England Peptide, Inc., Fitchburg, Miss., USA). The volume of NH4OH added to the solution was recorded and used to adjust beginning concentration. Solutions were serially diluted in fibroblast culture medium from 100-0.001 μg/ml, then added to the cells and cultured for 5 days. At day 3, test and control media were removed from each well by vacuum and replaced with fresh test or control solutions. Samples were evaluated in 4 replicate wells. Note in each plate, wells were selected at random to be used as baseline controls to account for any variation in cell seeding between plates. After 5 days, cell proliferation was assessed spectrophotometrically using the Cell Titer96® Cell Proliferation Assay (Promega Corp., Madison, Wis., USA). Absorbance values were normalized to baseline controls and expressed as percent increased (positive values) or decreased (negative values) proliferation.

Row | Substance | percent increased (positive values) or decreased (negative values) proliferation, concentration 0.001 ug/mL [%] | percent increased (positive values) or decreased (negative values) proliferation, concentration 0.01 ug/mL [%] | percent increased (positive values) or decreased (negative values) proliferation, concentration 0.1 ug/mL [%] | percent increased (positive values) or decreased (negative values) proliferation, concentration 1 ug/mL [%] | percent increased (positive values) or decreased (negative values) proliferation, concentration 10 ug/mL [%] | percent increased (positive values) or decreased (negative values) proliferation, concentration 100 ug/mL [%]
1 | AAPTV (Consensus peptide) [H2N-AAPTV-OH] | 11.0 | −0.2 | 0.3 | 2.8 | −5.9 | −5.9
2 | AAPTVD (Consensus peptide) [H2N-AAPTVD-OH] | 11.6 | 7.9 | −1.1 | 1.7 | −2.0 | 1.6
3 | APTVDLN (Consensus peptide) [H2N-APTVDLN-OH] | 1.2 | 3.9 | 2.8 | −6.0 | 8.1 | 6.7
4 | DAAPTV (Consensus peptide) [H2N-DAAPTV-OH] | −3.0 | 9.5 | 7.5 | 3.5 | −6.1 | −2.7
5 | DLNQ (Consensus peptide) [H2N-DLNQ-OH] | 15.9 | 8.9 | 2.6 | −0.8 | −0.7 | −3.6
6 | DLNRVL (Consensus peptide) [H2N-DLNRVL-OH] | 14.4 | 11.5 | −0.4 | −2.8 | −3.5 | −1.2
7 | DTAPTV (Consensus peptide) [H2N-DTAPTV-OH] | 3.2 | 2.5 | 6.7 | 2.9 | 2.2 | 7.6
8 | EVDAAPT (Consensus peptide) [H2N-EVDAAPT-OH] | 6.5 | 8.9 | 5.4 | 7.1 | 16.5 | 4.1
9 | LGDRL (Consensus peptide) [H2N-LGDRL-OH] | 10.3 | 0.0 | 0.6 | −4.8 | −3.1 | −3.8
10 | LNVEV (Consensus peptide) [H2N-LNVEV-OH] | −1.0 | 0.9 | −10.8 | −11.4 | 15.9 | 13.9
11 | RLNVEV (Consensus peptide) [H2N-RLNVEV-OH] | −2.6 | −6.0 | −4.3 | 1.9 | 6.4 | 10.6
12 | SPLGD (Consensus peptide) [H2N-SPLGD-OH] | 11.8 | 1.7 | −4.2 | 1.5 | −1.2 | −4.3
13 | TAPTV (Consensus peptide) [H2N-TAPTV-OH] | 5.2 | −1.2 | 9.4 | 8.2 | −2.7 | 0.7
14 | TAPTVD (Consensus peptide) [H2N-TAPTVD-OH] | 0.3 | −0.9 | −0.5 | 2.1 | 4.0 | 6.9
15 | TLRSP (Consensus peptide) [H2N-TLRSP-OH] | 4.7 | 1.9 | 7.7 | 6.6 | 14.7 | 18.8
16 | VDAAPT (Consensus peptide) [H2N-VDAAPT-OH] | 1.6 | 2.9 | −3.6 | 4.5 | 6.2 | 13.3
17 | VDTAPT (Consensus peptide) [H2N-VDTAPT-OH] | 9.0 | 4.2 | 6.8 | 2.5 | −0.1 | 4.4
18 | VDTAPTV (Consensus peptide) [H2N-VDTAPTV-OH] | 10.4 | 7.9 | 1.2 | 0.7 | 5.5 | −5.5
19 | VEVDAA (Consensus peptide) [H2N-VEVDAA-OH] | 11.0 | 2.3 | −9.0 | −4.7 | −1.3 | −9.5
